Values joined by “and” are separate entries in the source; they are usually repeats but may differ in a detail not shown here. Identical values can stand only once.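 Grown in 96-well plates, cells were treated for 48 hours with each compound at five concentrations. Insufficient inhibition: endpoint recorded as highest concentration tested. GI50 is the concentration that inhibits growth by half. At the TGI there is no net growth.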
What was measured:
Assay in all cases: NCI anticancer screen, dose series, 48 h
A549 NSCLC = test system: A549 NSCLC
SK-MEL-2 melanoma = test system: SK-MEL-2 melanoma
HOP-62 NSCLC = test system: HOP-62 NSCLC
OVCAR-4 ovarian = test system: OVCAR-4 ovarian
T-47D breast = test system: T-47D breast
SNB-19 CNS = test system: SNB-19 CNS
NCI-H522 lung = test system: NCI-H522 lung
CCRF-CEM leukemia = test system: CCRF-CEM leukemia
SNB-75 CNS = test system: SNB-75 CNS
IGROV1 ovarian = test system: IGROV1 ovarian

Structure (SMILES) | GI50 (A549 NSCLC) | TGI (A549 NSCLC) | GI50 (SK-MEL-2 melanoma) | TGI (SK-MEL-2 melanoma) | GI50 (HOP-62 NSCLC) | TGI (HOP-62 NSCLC) | GI50 (OVCAR-4 ovarian) | TGI (OVCAR-4 ovarian) | GI50 (T-47D breast) | TGI (T-47D breast) | GI50 (SNB-19 CNS) | TGI (SNB-19 CNS) | GI50 (NCI-H522 lung) | TGI (NCI-H522 lung) | GI50 (CCRF-CEM leukemia) | TGI (CCRF-CEM leukemia) | GI50 (SNB-75 CNS) | TGI (SNB-75 CNS) | GI50 (IGROV1 ovarian) | TGI (IGROV1 ovarian)
O=C(Nc1ccc(Br)cc1F)c1cc(Br)ccc1O | 2.11 µM | 16.4 µM | 0.387 µM | 2.42 µM | 1.45 µM | 6.36 µM | 0.604 µM | 25.3 µM | 0.457 µM | 6.87 µM | 0.502 µM | 27.9 µM | 0.344 µM | 5.38 µM | 2.03 µM | > 44.4 µM | 0.768 µM | 5.95 µM | 0.4 µM | 15.3 µM
COc1cc2c3c(c4c5ccccc5[nH]c4c2c(OC)c1OC)C(=O)N(CCN1CCCCC1)C3=O | 0.611 µM | 2.3 µM | 3.17 µM | 11.2 µM | 0.721 µM | 2.79 µM | 1.26 µM | 3.14 µM | 6.09 µM | > 25.5 µM | 1.05 µM | 2.42 µM | 0.794 µM | 2.76 µM | 0.855 µM | > 100 µM | 2.47 µM | 7.19 µM | 0.661 µM | 2.22 µM
CCN(CC(COc1ccc2c(c1)[n+]([O-])nc(N)[n+]2[O-])OC(C)=O)C(C)=O (stereo not drawn) |  | > 100 µM |  | > 100 µM |  | > 100 µM |  | > 100 µM |  | > 100 µM |  | > 100 µM |  | 56.3 µM |  | > 100 µM |  | > 100 µM |  | > 100 µM
Nc1nc2c(c3cnccc13)C(c1cccc(Cl)c1)Cc1cnccc1-2 (stereo not drawn) | 0.552 µM | 10.6 µM | 0.374 µM | 5.25 µM | 0.441 µM | 16.3 µM | 2.23 µM | 41 µM | 0.384 µM | 25.2 µM | 0.453 µM | 12.4 µM | 0.247 µM | 0.718 µM | 0.429 µM | 19.5 µM | 0.38 µM | 17.8 µM | 0.644 µM | 15.3 µM
CCc1ccc(Nc2cc(C)nc3nc(C)nn23)cc1 | 45.4 µM | > 100 µM | > 100 µM | > 100 µM | > 100 µM | > 100 µM | 27.7 µM | > 100 µM | 21.3 µM | > 100 µM | 53.4 µM | > 100 µM | 42.3 µM | > 100 µM | 48.1 µM | > 100 µM | 35.6 µM | > 100 µM | 61.2 µM | > 100 µM
NC[C@@](O)(c1ccc(Cl)cc1)c1ccc(-c2cn[nH]c2)cc1 | 1.5 µM and 1.41 µM | 4.08 µM and 3.21 µM | 1.89 µM | 4.5 µM | 2.04 µM and 0.89 µM | > 100 µM | 1.4 µM | 2.86 µM | 1.42 µM and 1.23 µM | 2.87 µM and 2.83 µM | 3.75 µM and 1.82 µM |  | 1.45 µM | 3.53 µM | 2.41 µM and 0.824 µM |  | 0.11 µM and 0.245 µM | 2.41 µM and 3.6 µM | 0.43 µM and 0.272 µM | 1.46 µM
CC/C=C\C/C=C\C[C@H]1C/C=C2/C(=O)C=C[C@H]2C/C=C\CCC(=O)O1 | 3.96 µM | 12.2 µM | 3.45 µM | 9.94 µM | 3.94 µM | 10.6 µM | 5.22 µM | > 14.3 µM | 4.62 µM | > 14.3 µM | 5.04 µM | > 14.3 µM | 1.83 µM | 5.32 µM | 2.89 µM | 13 µM | 10.1 µM | > 14.3 µM | 3.71 µM | 11.8 µM
COc1ccc(/C=C/C(=O)c2ccc(Nc3ccnc4cc(Cl)ccc34)cc2)cc1 | > 100 µM | > 100 µM | > 100 µM | > 100 µM | > 100 µM | > 100 µM | > 100 µM | > 100 µM | > 100 µM | > 100 µM | > 100 µM | > 100 µM | > 100 µM | > 100 µM | 5.64 µM | > 100 µM | > 100 µM | > 100 µM | > 100 µM | > 100 µM
C[C@@]1(N2C(=O)OC[C@@H]2c2ccccc2)C(=O)N([C@H](CC(=O)N2CCC(N3CCCCC3)CC2)C(=O)NCc2cccc(C(F)(F)F)c2)[C@@H]1/C=C/c1ccccc1 | 2.06 µM | 4.23 µM | 2.13 µM | 4.22 µM | 2.03 µM | 5.76 µM | 2.6 µM | 9.86 µM | 1.77 µM | 3.53 µM | 2.55 µM | 6.56 µM | 1.86 µM | 3.85 µM | 2.97 µM | 7.07 µM | 1.28 µM | 2.95 µM | 2.73 µM | 8.49 µM
O=C1c2cccnc2C(=O)c2c1c(C(=O)OCCN1CCOCC1)c1ccccn21 | 0.0205 µM | 1.17 µM | 0.0585 µM | 1.61 µM | < 0.01 µM | < 0.0142 µM | 1.07 µM | 5.29 µM | 0.228 µM | 5.25 µM | < 0.01 µM | 3.15 µM | < 0.0109 µM | 0.0449 µM | 0.126 µM | 6.8 µM | < 0.01 µM | 0.572 µM | 0.0406 µM | 9.91 µM
C[C@]12CC[C@H]3[C@@H](C[C@@H]4N=C(c5ccc(O)cc5)S[C@@]45C[C@H](O)CC[C@]35C)[C@@H]1CC[C@@H]2O | 5.95 µM | > 100 µM | 4.42 µM | 69.4 µM | 5.26 µM | 50.5 µM | 7.24 µM | > 100 µM | 10.3 µM | > 100 µM | 7.95 µM | > 100 µM | 22.6 µM | > 100 µM | 2.05 µM | 47.2 µM | 1.84 µM | 25.7 µM | 11.1 µM | > 100 µM
CSc1nc2c(c(=O)[nH]1)C(c1ccc(Cl)cc1)C1=C(N2)/C(=C/c2ccc(Cl)cc2)CNC1 (stereo not drawn) | 2.21 µM | 5.91 µM | 2.76 µM | 9.53 µM | 2.38 µM | 5.11 µM | 4.76 µM | 19.2 µM | 3.65 µM | 15.7 µM | 2.31 µM | 8.29 µM | 1.85 µM | 4.81 µM | 2.55 µM | 8.99 µM | 2.69 µM | 11.5 µM | 2.56 µM | 7.04 µM
CC(C)[C@@H]1CC[C@@H]2[C@@H]1[C@H](OC(=O)/C=C/c1ccccc1)[C@]1(C(C)C)C[C@@H](OC(=O)CO)[C@@]2(C)O1 | 6.61 µM | 14.4 µM | 7.71 µM | 17.6 µM | 6.45 µM | 14.5 µM | 5.15 µM | 9.93 µM | 5.27 µM | 12.5 µM | 5.37 µM | 10.8 µM | 6.19 µM | 13.2 µM | 6.9 µM | 15.2 µM | 3.46 µM | 8.5 µM | 6.79 µM | 12.5 µM
Cc1ccc(S(=O)(=O)n2cc(-c3nnnn3-c3ccc(Cl)cc3)c(=O)c3ccccc32)cc1 | 76.3 µM | > 100 µM | > 100 µM | > 100 µM | 73.6 µM | > 100 µM | 53.7 µM | > 100 µM | 57.9 µM | > 100 µM | > 100 µM | > 100 µM | 41.3 µM | > 100 µM | 43.4 µM | > 100 µM | 39.6 µM | > 100 µM | > 100 µM | > 100 µM
COC(=O)c1ccc(C2SCC(=O)N2NC(=O)C(O)c2ccccc2)cc1 (stereo not drawn) | > 100 µM | > 100 µM | > 100 µM | > 100 µM | > 100 µM | > 100 µM | > 100 µM | > 100 µM | > 100 µM | > 100 µM | > 100 µM | > 100 µM | > 100 µM | > 100 µM | > 100 µM | > 100 µM | > 100 µM | > 100 µM | > 100 µM | > 100 µM
COc1ccc(Nc2ncccc2C(=O)NCc2cn(Cc3cccc(Oc4ccccc4)c3)nn2)cc1 | 3.44 µM | > 100 µM | 3.66 µM | > 100 µM | 5.07 µM | > 100 µM | 5.19 µM | > 100 µM | 4.03 µM | > 100 µM | 3.55 µM | > 100 µM | 2.13 µM | 5.44 µM | 3.8 µM | > 100 µM | 3.09 µM | > 100 µM | 5.89 µM | > 100 µM
O=C(CN1CCN(c2ccc(Cl)cc2)CC1)N1CCN(c2nnc(-c3ccccc3)c(-c3ccccc3)n2)CC1 | 28.6 µM | > 100 µM | > 100 µM | > 100 µM | > 100 µM | > 100 µM | 1.75 µM | > 100 µM | 2 µM | > 100 µM | > 100 µM | > 100 µM | 16.2 µM | > 100 µM | 21.6 µM | > 100 µM | 7.56 µM | > 100 µM | 42.9 µM | > 100 µM
C[n+]1ccc(-c2c3nc(c(-c4ccc5c(ccc[n+]5C)c4)c4ccc([nH]4)c(-c4cc[n+](C)cc4)c4nc(c(-c5ccc6c(ccc[n+]6C)c5)c5ccc2[nH]5)C=C4)C=C3)cc1 | 38.1 µM | > 50 µM | 22.4 µM | > 50 µM | 13.3 µM | > 50 µM | 27.5 µM | > 50 µM | 12.4 µM | 48.7 µM | 24.2 µM | > 50 µM | > 50 µM | > 50 µM | > 50 µM | > 50 µM | 5.09 µM | 26.1 µM | > 50 µM | > 50 µM
O=C1OC2C(O)C(=O)OC2C1O (stereo not drawn) |  | > 100 µM |  | > 100 µM |  | > 100 µM |  | > 100 µM |  | > 100 µM |  | > 100 µM |  | > 100 µM |  | > 100 µM |  | > 100 µM |  | > 100 µM
COc1cc2c3c(n(CCCCl)c(=O)c2cc1OC)-c1ccc(C#N)cc1C3=O | 29.5 µM | > 100 µM | 4.93 µM | 24.5 µM | 14.7 µM | 30.2 µM | 88.7 µM | > 100 µM | > 100 µM | > 100 µM | 22.1 µM | > 100 µM | 6.63 µM | 59.2 µM | 3.59 µM | > 100 µM | 4 µM | 15.8 µM | 3.64 µM | 23.1 µM
CC(=O)c1ccc(NCN2C(=O)c3ccccc3C2=O)cc1 |  | > 100 µM |  | > 100 µM |  | > 100 µM |  | > 100 µM |  | > 100 µM |  | > 100 µM |  | > 100 µM |  | > 100 µM |  | > 100 µM |  | > 100 µM
